Source: article PMC9030254, “Target Hopping from Protein Kinases to PXR: Identification of Small-Molecule Protein Kinase Inhibitors as Selective Modulators of Pregnane X Receptor from TüKIC Library” (Cells, 2022)

Legend:
Experiment in all cases: Kinase profiling
Type in all cases: biochemical
AuroraC = biological target: T1, AuroraC (Homo sapiens, UniProt Q9UQB9)
T1 construct: purchased ProQinase (Freiburg, Germany)
T1 sequence (Q9UQB9 1-309): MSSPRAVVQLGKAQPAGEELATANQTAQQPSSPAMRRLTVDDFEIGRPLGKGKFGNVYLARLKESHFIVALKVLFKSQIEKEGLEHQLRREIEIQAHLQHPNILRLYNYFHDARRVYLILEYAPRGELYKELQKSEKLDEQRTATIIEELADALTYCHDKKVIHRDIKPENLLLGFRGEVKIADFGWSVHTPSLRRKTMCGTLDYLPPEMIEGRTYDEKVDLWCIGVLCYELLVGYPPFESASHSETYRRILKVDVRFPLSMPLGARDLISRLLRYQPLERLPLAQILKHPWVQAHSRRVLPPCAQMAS
Method: (§1) The analysis was performed by ProQinase (Freiburg, Germany).

HIPK4 = biological target: T2, HIPK4 (Homo sapiens, UniProt Q8NE63)
T2 construct: purchased ProQinase (Freiburg, Germany)
T2 sequence (Q8NE63 1-616): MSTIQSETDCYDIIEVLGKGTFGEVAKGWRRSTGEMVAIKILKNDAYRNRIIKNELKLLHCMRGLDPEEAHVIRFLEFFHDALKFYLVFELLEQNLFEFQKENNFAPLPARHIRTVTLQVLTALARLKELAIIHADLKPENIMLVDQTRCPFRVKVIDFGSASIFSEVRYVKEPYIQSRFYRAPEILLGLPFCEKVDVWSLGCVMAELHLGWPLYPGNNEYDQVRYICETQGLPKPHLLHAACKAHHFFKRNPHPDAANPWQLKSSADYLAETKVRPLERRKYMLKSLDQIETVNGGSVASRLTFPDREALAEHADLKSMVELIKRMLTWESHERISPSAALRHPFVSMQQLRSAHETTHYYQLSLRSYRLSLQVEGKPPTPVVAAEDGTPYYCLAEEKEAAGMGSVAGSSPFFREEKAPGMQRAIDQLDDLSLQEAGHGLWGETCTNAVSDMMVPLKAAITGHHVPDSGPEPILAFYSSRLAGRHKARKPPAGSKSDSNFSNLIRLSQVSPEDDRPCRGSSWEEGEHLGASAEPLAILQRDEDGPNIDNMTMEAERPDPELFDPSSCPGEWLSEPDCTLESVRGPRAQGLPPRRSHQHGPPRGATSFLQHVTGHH
Method: as §1

JAK1 = biological target: T3, JAK1 (Homo sapiens, UniProt P23458)
T3 construct: purchased ProQinase (Freiburg, Germany)
T3 sequence (P23458 whole entry): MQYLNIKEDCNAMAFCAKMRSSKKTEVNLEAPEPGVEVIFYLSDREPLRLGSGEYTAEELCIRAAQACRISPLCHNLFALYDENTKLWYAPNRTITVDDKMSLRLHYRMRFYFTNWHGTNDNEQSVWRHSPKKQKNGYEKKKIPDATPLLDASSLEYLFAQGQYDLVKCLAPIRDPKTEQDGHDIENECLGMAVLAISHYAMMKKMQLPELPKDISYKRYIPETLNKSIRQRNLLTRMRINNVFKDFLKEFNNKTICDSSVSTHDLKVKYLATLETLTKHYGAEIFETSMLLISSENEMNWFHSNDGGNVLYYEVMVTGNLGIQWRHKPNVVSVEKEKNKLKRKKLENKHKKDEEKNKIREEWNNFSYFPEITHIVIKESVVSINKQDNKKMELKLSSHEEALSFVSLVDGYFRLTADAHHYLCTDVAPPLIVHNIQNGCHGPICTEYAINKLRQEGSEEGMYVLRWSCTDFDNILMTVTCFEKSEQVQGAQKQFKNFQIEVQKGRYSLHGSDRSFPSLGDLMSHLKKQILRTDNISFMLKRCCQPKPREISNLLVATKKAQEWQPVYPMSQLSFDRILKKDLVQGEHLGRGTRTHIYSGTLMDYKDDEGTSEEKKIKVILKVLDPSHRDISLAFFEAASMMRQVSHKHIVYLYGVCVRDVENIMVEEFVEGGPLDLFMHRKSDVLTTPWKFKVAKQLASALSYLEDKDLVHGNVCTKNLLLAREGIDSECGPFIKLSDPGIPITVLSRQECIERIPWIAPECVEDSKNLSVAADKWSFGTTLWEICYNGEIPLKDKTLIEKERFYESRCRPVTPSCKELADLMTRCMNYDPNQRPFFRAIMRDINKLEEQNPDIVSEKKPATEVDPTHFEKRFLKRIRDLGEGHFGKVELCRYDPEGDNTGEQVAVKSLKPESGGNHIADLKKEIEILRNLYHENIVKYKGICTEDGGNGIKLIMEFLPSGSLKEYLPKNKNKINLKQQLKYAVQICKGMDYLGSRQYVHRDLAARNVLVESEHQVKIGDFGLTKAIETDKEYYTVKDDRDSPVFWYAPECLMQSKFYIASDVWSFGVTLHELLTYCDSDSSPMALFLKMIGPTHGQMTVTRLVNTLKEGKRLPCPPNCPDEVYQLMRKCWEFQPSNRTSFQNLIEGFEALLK
Method: as §1

MELK = biological target: T4, MELK (Homo sapiens, UniProt Q14680)
T4 construct: purchased ProQinase (Freiburg, Germany)
T4 sequence (Q14680 whole entry): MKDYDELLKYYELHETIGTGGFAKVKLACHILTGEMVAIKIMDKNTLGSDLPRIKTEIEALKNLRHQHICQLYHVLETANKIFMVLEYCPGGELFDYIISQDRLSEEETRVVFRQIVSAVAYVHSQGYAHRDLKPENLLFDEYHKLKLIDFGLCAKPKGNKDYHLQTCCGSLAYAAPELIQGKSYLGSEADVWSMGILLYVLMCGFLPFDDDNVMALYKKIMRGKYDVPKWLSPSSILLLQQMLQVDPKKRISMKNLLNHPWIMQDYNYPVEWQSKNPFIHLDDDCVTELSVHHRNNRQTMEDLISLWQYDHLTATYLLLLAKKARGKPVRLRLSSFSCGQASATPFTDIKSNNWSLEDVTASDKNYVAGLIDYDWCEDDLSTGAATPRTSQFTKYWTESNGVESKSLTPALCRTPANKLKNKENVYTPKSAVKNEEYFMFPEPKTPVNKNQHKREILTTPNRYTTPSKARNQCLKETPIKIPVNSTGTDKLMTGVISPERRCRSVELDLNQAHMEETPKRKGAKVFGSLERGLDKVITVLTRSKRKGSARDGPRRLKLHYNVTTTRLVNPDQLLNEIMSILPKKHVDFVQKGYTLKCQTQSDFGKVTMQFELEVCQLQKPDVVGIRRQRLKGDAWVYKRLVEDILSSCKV
Method: as §1

PAK2 = biological target: T5, PAK2 (Homo sapiens, UniProt Q13177)
T5 construct: purchased ProQinase (Freiburg, Germany)
T5 sequence (Q13177 whole entry): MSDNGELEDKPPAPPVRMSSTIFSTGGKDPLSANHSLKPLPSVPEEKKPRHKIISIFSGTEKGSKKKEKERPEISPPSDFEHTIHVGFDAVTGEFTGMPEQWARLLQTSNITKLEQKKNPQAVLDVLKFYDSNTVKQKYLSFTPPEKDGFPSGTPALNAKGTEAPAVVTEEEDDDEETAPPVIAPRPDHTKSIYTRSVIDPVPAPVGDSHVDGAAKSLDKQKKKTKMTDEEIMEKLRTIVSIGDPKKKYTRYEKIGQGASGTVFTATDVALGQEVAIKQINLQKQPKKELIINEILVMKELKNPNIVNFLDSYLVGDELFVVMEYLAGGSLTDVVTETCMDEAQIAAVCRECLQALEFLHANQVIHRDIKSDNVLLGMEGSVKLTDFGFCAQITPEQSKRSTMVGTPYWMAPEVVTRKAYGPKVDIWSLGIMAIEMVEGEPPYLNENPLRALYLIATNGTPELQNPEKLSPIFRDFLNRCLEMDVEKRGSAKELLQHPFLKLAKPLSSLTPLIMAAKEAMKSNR
Method: as §1

PIM1 = biological target: T6, PIM1 (Homo sapiens, UniProt P11309)
T6 construct: purchased ProQinase (Freiburg, Germany)
T6 sequence (P11309 whole entry): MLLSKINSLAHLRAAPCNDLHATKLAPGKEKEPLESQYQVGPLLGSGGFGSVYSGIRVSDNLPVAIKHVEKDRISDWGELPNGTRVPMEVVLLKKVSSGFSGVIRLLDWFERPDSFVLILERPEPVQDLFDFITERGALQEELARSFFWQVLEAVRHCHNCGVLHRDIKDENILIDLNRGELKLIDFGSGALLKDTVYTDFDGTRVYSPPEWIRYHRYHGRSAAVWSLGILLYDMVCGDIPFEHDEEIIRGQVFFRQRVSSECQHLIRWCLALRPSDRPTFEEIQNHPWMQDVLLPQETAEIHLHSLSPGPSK
Method: as §1

SRPK1 = biological target: T7, SRPK1 (Homo sapiens, UniProt Q96SB4)
T7 construct: purchased ProQinase (Freiburg, Germany)
T7 sequence (Q96SB4 whole entry): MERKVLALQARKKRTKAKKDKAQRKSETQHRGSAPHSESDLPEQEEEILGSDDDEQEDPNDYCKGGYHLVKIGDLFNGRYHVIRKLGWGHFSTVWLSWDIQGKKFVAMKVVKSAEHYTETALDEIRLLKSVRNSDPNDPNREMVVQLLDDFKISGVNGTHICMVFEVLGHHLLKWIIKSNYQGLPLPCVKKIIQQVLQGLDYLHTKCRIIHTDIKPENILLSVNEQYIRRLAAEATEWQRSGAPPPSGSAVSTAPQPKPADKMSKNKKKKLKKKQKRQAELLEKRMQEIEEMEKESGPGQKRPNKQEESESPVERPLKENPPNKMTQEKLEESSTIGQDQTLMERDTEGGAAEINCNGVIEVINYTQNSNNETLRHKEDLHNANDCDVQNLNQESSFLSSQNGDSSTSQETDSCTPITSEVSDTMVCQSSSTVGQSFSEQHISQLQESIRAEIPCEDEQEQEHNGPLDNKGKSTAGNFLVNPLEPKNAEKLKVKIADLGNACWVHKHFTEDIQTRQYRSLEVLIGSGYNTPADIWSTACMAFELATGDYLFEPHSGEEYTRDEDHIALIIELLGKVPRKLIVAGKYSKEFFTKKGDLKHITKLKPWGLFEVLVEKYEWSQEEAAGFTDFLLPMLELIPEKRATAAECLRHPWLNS
Method: as §1

ULK2 = biological target: T8, ULK2 (Homo sapiens, UniProt Q8IYT8)
T8 construct: purchased ProQinase (Freiburg, Germany)
T8 sequence (Q8IYT8 1-1036): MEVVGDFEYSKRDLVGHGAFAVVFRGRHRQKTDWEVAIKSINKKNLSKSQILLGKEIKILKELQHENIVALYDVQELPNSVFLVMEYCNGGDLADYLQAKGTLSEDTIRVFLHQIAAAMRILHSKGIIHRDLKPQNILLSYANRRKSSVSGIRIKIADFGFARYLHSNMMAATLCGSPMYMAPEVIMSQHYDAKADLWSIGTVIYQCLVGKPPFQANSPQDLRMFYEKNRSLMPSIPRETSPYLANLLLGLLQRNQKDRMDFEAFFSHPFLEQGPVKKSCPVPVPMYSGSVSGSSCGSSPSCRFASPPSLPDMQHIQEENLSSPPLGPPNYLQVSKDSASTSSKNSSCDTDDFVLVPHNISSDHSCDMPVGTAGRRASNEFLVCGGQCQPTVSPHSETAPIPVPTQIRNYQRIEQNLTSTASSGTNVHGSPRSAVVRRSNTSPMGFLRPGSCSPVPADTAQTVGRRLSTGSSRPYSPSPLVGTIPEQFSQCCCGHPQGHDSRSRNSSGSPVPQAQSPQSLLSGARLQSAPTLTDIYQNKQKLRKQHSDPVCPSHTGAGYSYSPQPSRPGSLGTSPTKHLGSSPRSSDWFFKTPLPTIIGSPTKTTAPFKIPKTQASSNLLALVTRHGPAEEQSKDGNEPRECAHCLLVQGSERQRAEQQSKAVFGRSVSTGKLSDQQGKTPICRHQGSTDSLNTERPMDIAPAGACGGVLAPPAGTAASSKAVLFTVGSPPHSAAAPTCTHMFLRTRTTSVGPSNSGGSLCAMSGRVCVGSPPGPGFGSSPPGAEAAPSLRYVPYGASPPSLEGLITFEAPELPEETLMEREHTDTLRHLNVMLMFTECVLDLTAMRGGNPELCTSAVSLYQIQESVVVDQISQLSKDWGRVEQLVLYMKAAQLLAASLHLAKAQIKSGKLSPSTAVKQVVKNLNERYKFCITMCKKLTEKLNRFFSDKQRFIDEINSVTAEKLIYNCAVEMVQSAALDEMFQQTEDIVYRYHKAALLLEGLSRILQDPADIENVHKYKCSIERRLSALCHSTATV
Method: as §1

SMILES	Residual activity (AuroraC; 1.0E-05 M)	Residual activity (AuroraC; 1.0E-06 M)	Residual activity (HIPK4; 1.0E-05 M)	Residual activity (HIPK4; 1.0E-06 M)	Residual activity (JAK1; 1.0E-05 M)	Residual activity (JAK1; 1.0E-06 M)	Residual activity (MELK; 1.0E-05 M)	Residual activity (MELK; 1.0E-06 M)	Residual activity (PAK2; 1.0E-05 M)	Residual activity (PAK2; 1.0E-06 M)	Residual activity (PIM1; 1.0E-05 M)	Residual activity (PIM1; 1.0E-06 M)	Residual activity (SRPK1; 1.0E-05 M)	Residual activity (SRPK1; 1.0E-06 M)	Residual activity (ULK2; 1.0E-05 M)	Residual activity (ULK2; 1.0E-06 M)
O=C(Nc1ccc(F)c(Nc2ccc3c(c2)CCCCC3=O)c1)c1cccc(F)c1 [Compound 109]	101 % of control	99 % of control	91 % of control	95 % of control	88 % of control	77 % of control	90 % of control	107 % of control	69 % of control	91 % of control	70 % of control	96 % of control	68 % of control	96 % of control	113 % of control	99 % of control
O=C(Cc1ccccc1)Nc1ccc(F)c(Nc2ccc3c(c2)CCCCC3=O)c1 [Compound 100]	101 % of control	110 % of control	84 % of control	92 % of control	85 % of control	88 % of control	90 % of control	93 % of control	68 % of control	101 % of control	74 % of control	88 % of control	71 % of control	94 % of control	103 % of control	113 % of control
